Measured values from patent publication US12122774B2, “Compounds as MYT1 inhibitors” (WIGEN BIOMEDICINE TECHNOLOGY (SHANGHAI) CO., LTD., priority 2022, dated 2024).
Converted amounts (≈) assume the structure as drawn. Each block holds one compound with its values, some of them ahead of it.

Tests used:
Recombinant MYT1 protein = target: T1, Recombinant MYT1 protein (Homo sapiens, UniProt Q99640); assay: In vitro assay for inhibiting MYT1 kinase activity (ADP-GLO); assay type: biochemical; conditions: 10 μM ATP, read-out: Inhibitory activity against recombinant protein MYT1 IC50
T1 sequence (Q99640 1-499): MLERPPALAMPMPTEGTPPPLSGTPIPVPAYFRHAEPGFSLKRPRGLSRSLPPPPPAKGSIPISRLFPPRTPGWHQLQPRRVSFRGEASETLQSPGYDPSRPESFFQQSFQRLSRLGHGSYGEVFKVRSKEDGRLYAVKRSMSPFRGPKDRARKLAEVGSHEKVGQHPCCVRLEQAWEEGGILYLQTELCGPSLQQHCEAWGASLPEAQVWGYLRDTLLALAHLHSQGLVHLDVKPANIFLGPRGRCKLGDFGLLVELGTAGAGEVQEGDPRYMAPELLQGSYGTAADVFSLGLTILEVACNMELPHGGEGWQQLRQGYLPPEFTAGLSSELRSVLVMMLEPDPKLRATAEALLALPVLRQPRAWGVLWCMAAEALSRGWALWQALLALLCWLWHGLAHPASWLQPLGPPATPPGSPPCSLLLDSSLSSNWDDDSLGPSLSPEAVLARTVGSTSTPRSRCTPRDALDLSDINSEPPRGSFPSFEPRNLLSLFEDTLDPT
Procedure: Recombinant MYT1 protein and the compounds were pre-incubated at room temperature for 15 min, and 10 μM ATP was then added to start the reaction. The mixture was incubated at room temperature for another 60 min, and the ADP-GLO reagent from Promega was then added. The resulting mixture was incubated in the dark for 40 min, a detection solution was then added, and the mixture was incubated for another 45-60 min. The chemiluminescence was determined using ENVISION. The inhibition rate and IC50 were calculated compared to the DMSO group.

MIA PaCa-2 cells = assay: In vitro anti-proliferative activity against MIA PaCa-2 cells (compound alone); assay type: cell-based; conditions: intracellular ATP content
Procedure: MIA PaCa-2 cells were seeded on a 384-well plate at 3000 cells/well. After overnight adherence culture, DMSO or the compounds serially diluted 1:5 from 10 µM were added. The viability was assessed 72 h after dosing by measuring the intracellular ATP content. The inhibition percentage of viable cells by the compounds was calculated by comparing with the DMSO group, and the IC50 value was calculated.

[1] = system: MDCK cells (MDCK wild type); assay: In vitro permeability experiment, MDCK wild type; conditions: MDCK-Wild type, 5 μM, 90 min
Procedure: (§1) In vitro passive permeability or the ability to serve as a P-glycoprotein (P-gp) transport substrate was tested using MDCK cells (MDCK wild type) or MDCK cells stably transduced with MDR1 (MDCK-MDR1), respectively. The permeability experiment was performed in duplicate in a transwell system at a single concentration (5 μM). The cells were incubated for 90 min. Apical-to-basolateral (A to B, A-B) transport and basolateral-to-apical (B to A, B-A) transport of the corresponding compound were determined, and the permeation rate (apparent permeability) (Papp×10^−6 cm/sec) and efflux ratio (Papp (B-A)/Papp (A-B)) of the test compound were calculated.

[2] = system: MDCK cells stably transduced with MDR1 (MDCK-MDR1); assay: In vitro permeability experiment, MDCK-MDR1; conditions: 5 μM, 90 min
Procedure: as §1

[3] = In vitro solubility experiment; assay type: physicochemical; conditions: thermodynamic from solid
Procedure: (§2) Preparation of a standard curve: 10.01 mg of sample was weighed out and placed in a volumetric flask, and the volume was brought to 10 mL with acetonitrile/water (v/v, 9/1) to prepare 1.001 mg/mL of standard solution; the standard solution was then serially diluted to 0.5005 mg/mL, 0.1001 mg/mL, 0.05005 mg/mL, 0.01001 mg/mL, and 0.001001 mg/mL to generate the standard curve, and a linear equation was fitted by taking the peak area of the sample as a vertical axis and the concentration as a horizontal axis. Solubility and stability test: 15 mg of sample was added to 3 mL of vehicle (FaSSIF, FeSSIF, SGF, or water) to prepare a corresponding suspension at a target concentration of 5 mg/mL. The prepared suspension was stirred on a shaker (800 rpm) at 37° C. for 0.5 h, and the suspension was then filtered. The filtrate was diluted with a diluent to a corresponding multiple so that the peak height could not exceed the standard curve, and the solubility and purity were detected using HPLC.

[4] = In vivo pharmacokinetic experiment; design: species or system CD-1 female mice; conditions: mice, oral administration 10 mg/kg
Procedure: CD-1 female mice aged 7 to 10 weeks were intravenously administered and orally administered at a dose of 2 mg/kg and 10 mg/kg, respectively. The mice were fasted for at least 12 h before the administration and given food 4 h after the administration, and they were given ad libitum access to water during the experiment. On the day of the experiment, animals in the intravenous group were administered the corresponding compound by single injection via the tail vein at an administration volume of 10 mL/kg. Animals in the oral group were administered the corresponding compound by single intragastric injection at an administration volume of 10 mL/kg. The animals were weighed before administration, and the administration volume was calculated according to the body weight. The sample collection time was 0.083 h (injection group), 0.167 h, 0.5 h, 1 h, 2 h, 4 h, 8 h, and 24 h. About 200 μL of whole blood was collected through the submaxillary venous plexus at each time point and used to prepare plasma for concentration determination by high-performance liquid chromatography-tandem mass spectrometry (LC-MS/MS). All animals were euthanized with CO2 anesthesia after the PK samples were collected at the last time point. The plasma concentrations were processed using a non-compartmental model of Phoenix WinNonlin™ version 8.3 (Certara) pharmacokinetic software, and the pharmacokinetic parameters were calculated using a linear-log trapezoidal method.

[5] = In vitro stability experiment (HPLC purity of filtrate); assay type: physicochemical
Procedure: as §2

[6] = FaSSIF, initial pH 6.52, 37° C.
[7] = FeSSIF, initial pH 4.98, 37° C.

Compound: Cc1cc2c(C(N)=O)c(N)n(-c3c(C)c(O)cc4ccccc34)c2nc1C [Compound 128]
IC50 (Recombinant MYT1 protein): 0.2 to 0.5 µM

Compound: Cc1cc2c(C(N)=O)c(N)n(-c3c(C)cc4cc[nH]c4c3C)c2nc1C [Compound 153]
IC50 (MIA PaCa-2 cells; Homo sapiens, MIA PaCa-2, 72 h): > 10 µM

Compound: COCCc1ccc(OCC(O)CNC(C)C)cc1 (stereo not drawn) [Metoprolol, reference compound]
Papp Mean ([1]; A-B): 24.34 10^−6 cm · s^−1
Papp Sample - 01 ([1]; A-B): 26.48 10^−6 cm · s^−1
Papp Sample - 02 ([1]; A-B): 22.20 10^−6 cm · s^−1
Papp Mean ([1]; B-A): 21.29 10^−6 cm · s^−1
Papp Sample - 01 ([1]; B-A): 18.61 10^−6 cm · s^−1
Papp Sample - 02 ([1]; B-A): 23.97 10^−6 cm · s^−1
Papp Mean ([2]; MDCK-MDR1, A-B): 36.96 10^−6 cm · s^−1
Papp Sample - 01 ([2]; MDCK-MDR1, A-B): 37.59 10^−6 cm · s^−1
Papp Sample - 02 ([2]; MDCK-MDR1, A-B): 36.32 10^−6 cm · s^−1
Papp Mean ([2]; MDCK-MDR1, B-A): 20.14 10^−6 cm · s^−1
Papp Sample - 01 ([2]; MDCK-MDR1, B-A): 20.11 10^−6 cm · s^−1
Papp Sample - 02 ([2]; MDCK-MDR1, B-A): 20.17 10^−6 cm · s^−1

Further lines, results first:

IC50 (MIA PaCa-2 cells; Homo sapiens, MIA PaCa-2, 72 h): > 10 µM
Compound: Cc1cc2c(C(N)=O)c(N)n(-c3c(C)cc4c(c3C)NCC4)c2nc1C [Compound 150]

IC50 (MIA PaCa-2 cells; 72 h): > 10 µM
Compound: Cc1cc2c(C(N)=O)c(N)n(-c3c(C)cc4c(c3C)NCC4)c2nc1C [Compound 151]

solubility at 0.5 h ([3]; simulated gastric fluid, SGF, initial pH 1.2, 37° C.): 3860 µg/mL (≈ 11900 µM)
solubility at 0.5 h [3, 6]: 49 µg/mL (≈ 151 µM)
solubility at 0.5 h [3, 7]: 182 µg/mL (≈ 561 µM)
solubility at 0.5 h ([3]; Water, initial pH 7.7, 37° C.): 13 µg/mL (≈ 40.1 µM)
half-life ([4]; female, CD-1, mouse, plasma): 1.58 h
F % [4]: 54.7%
HPLC purity 0.5 h [5, 6]: 58.88 %, 220 nm
HPLC purity 0.5 h [5, 7]: 74.51 %, 220 nm
HPLC purity 0.5 h ([5]; SGF, initial pH 1.2, 37° C.): 98.18 %, 220 nm
HPLC purity 0.5 h ([5]; Water, initial pH 7.7, 37° C.): 40.92 %, 220 nm
IC50 (MIA PaCa-2 cells; Homo sapiens, MIA PaCa-2, 72 h): 9.22 µM
Compound: Cc1cc2c(C(N)=O)c(N)n(-c3c(C)ccc(O)c3C)c2nc1C [RP-6306, reference compound]
